Consider nine compounds from patent US8398959B2, “Compositions and methods for imparting a sunless tan with functionalized adjuvants” (Conopco, Inc., priority 2010, dated 2013).

SMILES strings stand for the structures. Entries after “also recorded” stand apart in the source; their conditions may differ.

The nature of assay [1]: Enhancement activity of adjuvant in DHA composition on artificial skin (VitroSkin), color by colorimeter. To be noted: for color enhancement activity on artificial skin (in words): adjuvant 0.5-2 wt.% in composition with DHA; for color quality (delta a*/delta b*, visual examination) in words: composition with DHA on artificial skin. On the procedure: General procedure for in vitro testing: DHA, 2.5 weight percent, and 0.5 to 2.0 weight percent adjuvant were formulated into the base (as described in Table 1). About 20 mg of resulting composition was applied to VitroSkin® made available from IMS Company and applied in a circular pattern having a diameter around 2.4 cm. The artificial skin was pre-hydrated under 50% RH for 24 hours before use, and the skin was kept at a temperature of 35° C. under constant relative humidity (RH, 50%). Color development was evaluated with a colorimeter as defined below.
Enhancement activity of pyrrole-2-carboxylic acid was carried out on artificial skin when formulated in a ready-to-use composition with ingredients as described in Table 4 and color was detected and assessed with a colorimeter.

Assay [2] is described as follows: Enhancement activity of adjuvant in DHA/glycine solution, color change by colorimeter. To be noted: adjuvant 0.5-2 wt.% in solution with DHA and glycine. From the text: A control solution was made as follows: Mixing vials were charged with 2.5 weight percent glycine, 2.5 percent by weight DHA and 0.2 M citric/citrate buffer solution to produce the desired control solution, pH 5.6. The balance of the control solutions was water. Compositions consistent with the invention were made as follows: about 0.5 to 2.0 weight percent adjuvant, 2.5 weight percent DHA and 2.5 weight percent glycine were combined, resulting in compositions consistent with this invention with water as the balance. The initial pH of the resulting adjuvant comprising solution was measured and adjusted with NaOH or citric acid, if necessary, to yield an adjuvant comprising solution, pH of about 5.6. The solutions were placed in a 35° C. oven and color change was assessed visually (by taking photos) and by measuring L*a*b* values utilizing a conventional colorimeter. L*a*b* values of the solutions were measured and assessed as set forth below.
Enhancement activity of pyrrole-2-carboxylic acid in solution was carried out on the solutions described in Table 2 and the color of the reaction system was detected and assessed with a colorimeter.
Delta L* was used to characterize color change whereby the larger Delta L* value reflects darker coloring. […] Pyrrole-2-carboxylic acid, therefore, is believed to catalyze the DHA/glycine Maillard reaction.

Take `Cn1cccc1C(=O)O` [1-methyl-2-pyrrolecarboxylic acid]: in assay [1], the “color enhancement activity on artificial skin (in words)” value (from here on “color enhancement activity”) was “color enhancement activity; also recorded: excellent DHA enhancer” and the “color quality (delta a*/delta b*, visual examination) in words” value is on record as “more natural color via visual examination; also recorded: better than that of the control at all concentrations tested”. The “DHA enhancement activity / color enhancement in solution (in words)” value in assay [2] is given as “excellent DHA enhancement activity”.

On to `O=C(O)c1cc2ccccc2[nH]1` [1H-indole-2-carboxylic acid], for which the “DHA enhancement activity / color enhancement in solution (in words)” value in assay [2] is “excellent color enhancement”; in assay [2] (listed as 1-H-indole-2-carboxylic acid) it was “excellent coloring properties”.

On to `CC(=O)c1cccn1C` [2-acetyl-1-methylpyrrole], for which the “color enhancement activity” value in assay [1] is on record as “color enhancement of artificial skin”. The “DHA enhancement activity / color enhancement in solution (in words)” value in assay [2] is on record as “surprisingly good color enhancement”.

Regarding `CC(=O)c1ccco1` [2-acetylfuran], the “color enhancement activity” value in assay [1] is given as “color enhancement of artificial skin”.

With `CC(=O)c1ccc[nH]1` [2-acetylpyrrole], the “color enhancement activity” value in assay [1] is recorded as “color enhancement of artificial skin”. The “DHA enhancement activity / color enhancement in solution (in words)” value in assay [2] is on record as “surprisingly good color enhancement”.

As for `O=C(O)c1ccco1` [2-furoic acid], in assay [1], the “color enhancement activity” value is “color enhancement of artificial skin”.

As for `O=C(CO)CO` [DHA, 1,3-dihydroxy-2-propanone, reference compound], the “color quality (delta a*/delta b*, visual examination) in words” value in assay [1] was “yellowish”.

For the compound `COC(=O)c1ccc[nH]1` [methyl-2-pyrrole carboxylate], the “DHA enhancement activity / color enhancement in solution (in words)” value in assay [2] is “surprisingly good color enhancement”.

For the compound `O=C(O)c1ccc[nH]1` [pyrrole-2-carboxylic acid], in assay [1], the “color enhancement activity” value is on record as “DHA color enhancement activity at all tested concentrations”; the “color quality (delta a*/delta b*, visual examination) in words” value was “longer lasting and more natural color”. Besides, the “DHA enhancement activity / color enhancement in solution (in words)” value in assay [2] is recorded as “significantly enhanced DHA activity at all concentrations tested”.
